# Where two headings read alike, the source gives them in different places. Positions of bridges follow the written chain, without caps; N, C: chain ends. Non-standard residues stand in square brackets, D forms with d. Residues, ends and D or L forms follow the SMILES beside them. No end group written: not given here. *: point of attachment. X1 = CC(=O)N[C@@H](Cc1ccccc1)C(=O)N[C@H]1Cc2ccc(cc2)OC/C=C/COc2ccc(cc2)C[C@@H](C(=O)*)NC1=O; AllylGly = C=CC[C@H](N)C(=O)O
# Columns and labels:
# cloned rat KOR [1] = biological target: T1, cloned rat KOR (Rattus norvegicus, UniProt P34975); conditions: read-out: KOR Ki ± SEM; cited from earlier work
# T1 construct: expressed in transfected cells
# KOR [2] = conditions: following a single injection; ref [4]; cited from earlier work
# Text: Recently, antagonists of the kappa opioid receptor (KOR) have attracted significant attention due to their potential use in treating various central nervous system (CNS) disorders, especially mood disorders and substance abuse. […] Consequently, there has been a growing interest in KOR antagonists, including peptide KOR antagonists, with m ...
# cloned rat KOR [3] = biological target: T1, cloned rat KOR; assay: Radioligand binding, competitive inhibition of [^3H]diprenorphine, KOR
# KOR [4] = assay: Dynorphin-stimulated [^35S]GTPγS assay, KOR antagonism (Schild analysis); type: biochemical; conditions: for agonist activity / type of antagonism at KOR: [^35S]GTPγS binding assay
# cloned rat MOR = biological target: T2, cloned rat MOR (Rattus norvegicus, UniProt P33535); assay: Radioligand binding, competitive inhibition of [^3H]DAMGO, MOR
# T2 construct: expressed in transfected cells
# KOR [5] = conditions: [^35S]GTPγS binding assay; known comparator; cited from earlier work
# KOR [6] = conditions: ref [6]; cited from earlier work
# ẟ opioid receptor (DOR) = conditions: ref [6]; cited from earlier work
# [7] = test system: stress-induced reinstatement of cocaine-seeking behavior; conditions: mouse conditioned place preference; i.c.v.; ref [7]; cited from earlier work
# [8] = test system: KOR (antagonism of U50,488 antinociception); conditions: mouse 55 °C warm-water tail withdrawal; i.c.v.; ref [7]; cited from earlier work
# proteases = conditions: linear peptide; general statement; cited from earlier work
# KOR [9] = test system: KOR; design: method as in PMID 34162205; conditions: ref [23]; read-out: KOR agonist potency EC50; cited from earlier work
# KOR [10] = biological target: KOR; design: method as in PMID 34162205; conditions: ref [23]; cited from earlier work
compound,measurement,setting,value
"3: monocyclic arodyn analog, RCM cyclization between Tyr(All) residues in positions 2 and 3 (FYYRLRRARPK) [Peptide 3]",Ki,cloned rat KOR [1],0.0554 ± 0.0041 µM
CC(C)[C@@H](CN1CC[C@@](C)(c2cccc(O)c2)[C@@H](C)C1)NC(=O)[C@H]1Cc2ccc(O)cc2CN1 [JDTic],duration of action,KOR [2],"exhibited prolonged effects, with their action extending from days to weeks"
CC(=O)N[C@@H](Cc1ccccc1)C(=O)N[C@H]1Cc2ccc(cc2)OC/C=C/COc2ccc(cc2)C[C@@H](C(=O)N[C@@H](CCCNC(=N)N)C(=O)N[C@H]2CC=CC[C@@H](C(=O)N[C@@H](CCCNC(=N)N)C(=O)N3CCC[C@H]3C(=O)N[C@@H](CCCCN)C(N)=O)NC(=O)[C@H](CCCNC(=N)N)NC(=O)[C@H](CCCNC(=N)N)NC2=O)NC1=O [Peptide 4] (X1-R[AllylGly]RR[AllylGly]RPK-NH2; staple 2-5),Ki,cloned rat KOR [3],0.0264 ± 0.0059 µM
same,KOR selectivity over MOR,cloned rat KOR [3]; MOR Ki / KOR Ki,97 fold
same,Ki Ratio (MOR/KOR),cloned rat KOR [3]; MOR Ki / KOR Ki,97
same,agonist activity / type of antagonism at KOR,KOR [4],did not exhibit appreciable agonist activity and functioned as a potent competitive KOR antagonist
same,agonist activity / type of antagonism at KOR,KOR [4]; listed as bicyclic analog,exhibits potent KOR antagonism
same,Kb,"KOR [4]; dynorphin A-(1–13)-NH2-stimulated [^35S]GTPγS binding, KOR membranes, peptidase inhibitors present, four concentrations 1–1000 nM of 4, Schild analysis, mean values from 4 independent experiments",0.0009 µM
same,KOR affinity and KOR antagonism relative to monocyclic analogs,KOR [4]; dynorphin-stimulated [^35S]GTPγS assay and KOR binding,comparable to monocyclic analogs
same,Ki,cloned rat MOR,2.57 ± 0.5 µM
"Ac[Phe^1,2,3,Arg^4,D-Ala^8]dynorphin A-(1–11)-NH2 [arodyn]",agonist activity / type of antagonism at KOR,KOR [5],did not exhibit appreciable agonist activity and functioned as a potent competitive KOR antagonist
same,KOR antagonism in vitro,KOR [6],potent KOR antagonist in vitro
same,Ki,ẟ opioid receptor (DOR),> 5 µM
same,reinstatement of cocaine-seeking behavior induced by stress,[7],prevented the reinstatement of cocaine-seeking behavior induced by stress
same,"antagonism of antinociception produced by U50,488",[8],"antagonized antinociception produced by the KOR-selective agonist U50,488"
same,susceptibility to proteolysis,proteases,susceptible to rapid breakdown by proteases
"dynorphin A-(1–13)-NH2: KOR agonist reference peptide (YGGFLRRIRPKLK-NH2; UniProt P01213 207-219, looked up, fragment)",EC50,KOR [9],0.0028 µM
same,Ki,KOR [10],0.0003 µM

# Reference: paper PMC11243530 (Molecules, 2024)
